# Data: patent US8623885B2, “Fused tricyclic dual inhibitors of CDK 4/6 and FLT3” (Amgen Inc., priority 2011, dated 2014)
# Entries after “also recorded” stand apart in the source; their conditions may differ.
# Key:
# neointima formation = conditions: animal models; cited from earlier work
# [1] = biological target: FLT3 enzyme (GST-FLT3 fusion) (Homo sapiens (Human), UniProt P36888); experiment: FLT3 HTRF kinase assay; format: biochemical; conditions: 116 μM ATP
# Protocol: The FLT3 inhibitory activity of the CDK4/6-FLT3 inhibitors was determined with a HTRF kinase assay. The FLT3 enzyme (GST-FLT3 fusion) was purchased from Carna Biosciences. An ULight-labeled synthetic peptide derived from human Janus kinase 1 (aa1015-1027, ULight-JAK1, PerkinElmer) was utilized as the phosphoacceptor substrate. The assay was conducted in a 384-well white OptiPlate (PerkinElmer). The 20 μL reaction mixture contained 50 nM ULight-JAK1, 116 μM ATP, 0.0385 ng/μL FLT3 and dilutions of test compounds in the kinase buffer (50 mM Hepes, pH 7.6, 1 mM EGTA, 10 mM MgCl2, 2 mM DTT, and 0.005% Tween 20). The reaction was allowed to proceed for 1 hour at room temperature and was stopped by adding 20 μL of 10 mM EDTA, 2 nM LANCE® Eu-W1024 anti-phospho-tyrosine antibody in LANCE® detection buffer (PerkinElmer). The plates were incubated at room temperature for 2 hours after addition of detection reagents and then read on an Envision multimode reader (PerkinElmer).
# (§1) IC50 values of the compounds in the above assays were determined by non-linear regression analysis using Prism (GraphPad Software).
# CDK4/Cyclin D1 = CDK4/Cyclin D1 (Homo sapiens (Human), UniProt P11802); experiment: CDK4 filtration kinase assay; format: biochemical; conditions: CDK4/Cyclin D1, Rb fragment substrate, [33P]-ATP filtration assay
# Chain of CDK4/Cyclin D1 (P11802 whole entry, the tested form may be a part): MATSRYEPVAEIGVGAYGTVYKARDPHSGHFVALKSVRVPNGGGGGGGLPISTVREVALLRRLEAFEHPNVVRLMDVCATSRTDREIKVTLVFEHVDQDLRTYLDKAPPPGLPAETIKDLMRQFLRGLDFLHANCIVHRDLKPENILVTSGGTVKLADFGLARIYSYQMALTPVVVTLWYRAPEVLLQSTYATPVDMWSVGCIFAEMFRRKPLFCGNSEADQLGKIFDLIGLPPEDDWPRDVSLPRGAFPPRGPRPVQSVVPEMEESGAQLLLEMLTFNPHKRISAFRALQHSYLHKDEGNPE
# Chain of CDK4/Cyclin D1 (P24385 whole entry partner, the tested form may be a part): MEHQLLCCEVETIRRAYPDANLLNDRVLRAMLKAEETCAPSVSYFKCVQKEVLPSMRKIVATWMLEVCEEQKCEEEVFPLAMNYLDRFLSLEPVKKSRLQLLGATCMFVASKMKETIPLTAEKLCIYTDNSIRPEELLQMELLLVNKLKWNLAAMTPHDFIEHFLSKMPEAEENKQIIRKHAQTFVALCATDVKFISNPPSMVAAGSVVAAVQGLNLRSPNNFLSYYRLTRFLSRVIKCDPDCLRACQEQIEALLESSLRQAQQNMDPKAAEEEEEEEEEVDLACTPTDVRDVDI
# Protocol: The CDK4 and CDK1 inhibitory activity of the CDK4/6-FLT3 inhibitors was determined with a filtration kinase assay. The compounds, kinase and substrate diluted in the kinase buffer (20 mM Tris, pH7.4, 50 mM NaCl, 1 mM DTT, 0.1% BSA) were sequentially added to a 96-well Multiscreen HTS filtration plate (Millipore). The final 100 μL reaction mixture in each well contained 0.3 μg of CDK4/Cyclin D1 or CDK1/Cyclin B (Cell Signaling Technology), 1 μg of Rb fragment (aa773-928, Millipore) for the CDK4 assay or 5 μg of histone H1 for the CDK1 assay and 1 μCi of [^33P]-ATP. The mixture was incubated at room temperature for 1 hour. The proteins in the reaction were then precipitated and washed with cold TCA solution using an aspiration/filtration vacuum system. The plates were dried at room temperature, and the retained radioactivity was measured by scintillation counting.
# as §1
# MOLM13 cells = experiment: [14C]-thymidine incorporation cell proliferation assay, MOLM13; format: cell-based, human; conditions: Homo sapiens, MOLM-13, 72 hour incubation
# Protocol: The cell proliferation inhibition potency of the CDK4/6-FLT3 inhibitors was determined by using a [^14C]-thymidine incorporation assay. Exponentially growing cells (MOLM-13, Colo-205, etc.) were seeded in a 96-well Cytostar T plate (GE Healthcare Biosciences) at a density of 5×10^3 cells/well and incubated overnight. Serially diluted compounds and 0.1 μCi of [^14C]-thymidine (GE Healthcare Biosciences) were added to each well on the following day. After 72 hour incubation, isotope incorporation was determined with a β plate counter (Wallac). MOLM13 is a human AML tumor cell line expressing FLT3, FLT3^ITD and wild type Rb.
# as §1
# [2] = tested on: MOLM13 subcutaneous xenograft tumors; experiment: Tumor growth inhibition in AML MOLM13 xenograft tumors; format: in vivo, CrTac:NCR-Foxn1nu nude mice
# Protocol: The AML cell line, MOLM13, (obtained from American Type Culture Collection, Manassas, Va., USA) was cultured in RPMI-1640 cell growth medium containing 10% fetal bovine serum (commercially obtained from Invitrogen, Carlsbad, Calif. USA). This cell line expresses CDK4/6, one copy of wild type FLT3 kinase and one copy of FLT3-ITD, which results in constitutive activation of FLT3 activity. Therefore, the activity of Example 5 against both FLT3 and CDK4/6 can be tested in this tumor cell. Tumor cells (7.5 million) were injected subcutaneously onto the right flank of CrTac:NCR-Foxn1^nu nude mice (commercially available from Taconic Farms, Inc, Hudson, N.Y. USA). Tumors were allowed to grow for 6 days. […] Tumors were measured every other day using two-dimensional calipers and tumor volumes were estimated using the equation Width^2×Length×0.5. […] Statistical significance was evaluated using RMANOVA on log transformed tumor volume with baseline as covariate.
# [3] = tested on: Colo205 human colon carcinoma xenograft tumors; experiment: Tumor growth inhibition in Colo205 xenograft tumors; format: in vivo, CrTac:NCR-Foxn1nu nude mice
# Protocol: The activity of Example 5 was evaluated in the human colon carcinoma, Colo205, xenograft tumor model. This cell line expresses CDK4/6 but not FLT3. Therefore, this system will measure the activity of Example 5 against CDK4/6. Colo205 cells (obtained from American Type Culture Collection, Manassas, Va., USA) were cultured in DMEM cell growth medium containing 10% fetal bovine serum (commercially obtained from Invitrogen, Carlsbad, Calif. USA). Two million cells were innoculated on the right flank of CrTac:NCR-Foxn1^nu nude mice (commercially available from Taconic Farms, Inc, Hudson, N.Y. USA) and allowed to grow for 13 days. Mice were then distributed into groups of 10 mice based on ranking of initial tumor volume to achieve groups in which the average tumor size was 170 mm^3 Example 5 was formulated in 2% HPMC (Hypermellose; HY122-13; commercially available from Spectrum Chemical Manufacturing Gardena, Calif. USA)/1% Tween-80 (Crillet 4 HP; commercially available from Croda, Inc Edison, N.J. USA) and dosed daily or twice daily 6 hours apart for a total of 10 days with 12.5 mg/kg, 25 mg/kg, 37.5 mg/kg, or 50 mg/kg. Tumors were measured every other day using two-dimensional calipers and tumor volumes were estimated using the equation Width^2×Length×0.5. […] Statistical significance was evaluated using RMANOVA on log transformed tumor volume with baseline as covariate.
# Chain of FLT3 enzyme (GST-FLT3 fusion) (P36888 27-993): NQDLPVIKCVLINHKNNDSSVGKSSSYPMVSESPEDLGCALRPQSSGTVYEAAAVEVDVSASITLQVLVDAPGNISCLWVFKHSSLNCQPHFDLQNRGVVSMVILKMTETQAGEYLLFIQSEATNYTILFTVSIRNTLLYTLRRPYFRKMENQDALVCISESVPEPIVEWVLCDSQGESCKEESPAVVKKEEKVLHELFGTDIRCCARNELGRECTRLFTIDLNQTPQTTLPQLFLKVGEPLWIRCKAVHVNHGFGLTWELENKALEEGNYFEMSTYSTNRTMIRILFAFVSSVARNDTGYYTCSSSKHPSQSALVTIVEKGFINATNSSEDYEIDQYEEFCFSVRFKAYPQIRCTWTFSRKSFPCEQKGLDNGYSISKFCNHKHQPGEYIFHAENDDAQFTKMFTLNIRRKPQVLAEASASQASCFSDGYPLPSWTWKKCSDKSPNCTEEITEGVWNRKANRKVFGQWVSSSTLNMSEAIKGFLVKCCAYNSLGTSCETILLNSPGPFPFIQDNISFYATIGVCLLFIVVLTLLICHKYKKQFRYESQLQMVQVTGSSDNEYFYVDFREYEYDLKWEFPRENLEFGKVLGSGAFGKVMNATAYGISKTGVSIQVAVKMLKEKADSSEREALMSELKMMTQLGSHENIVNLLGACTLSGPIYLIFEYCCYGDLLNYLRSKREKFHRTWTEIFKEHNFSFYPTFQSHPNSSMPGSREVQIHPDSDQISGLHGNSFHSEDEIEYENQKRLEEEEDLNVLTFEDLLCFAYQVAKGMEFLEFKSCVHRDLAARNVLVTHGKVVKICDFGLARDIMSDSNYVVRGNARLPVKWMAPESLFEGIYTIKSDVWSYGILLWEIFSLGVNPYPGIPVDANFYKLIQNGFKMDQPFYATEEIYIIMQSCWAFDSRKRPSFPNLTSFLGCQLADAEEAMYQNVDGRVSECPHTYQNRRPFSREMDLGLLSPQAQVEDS
SMILES,inhibition of neointima formation (neointima formation),IC50 [1] [nM],IC50 (CDK4/Cyclin D1) [nM],IC50 (MOLM13 cells) [nM],"inhibition of tumor growth (tumor volume) ([2]; 6.25-150 mg/kg, twice daily (BID), 10 days)",tumor volume versus vehicle treated group (RMANOVA) ([2]; all doses),"inhibition of tumor growth (tumor volume) ([3]; 12.5-50 mg/kg, twice daily (BID), 10 days)",tumor volume versus vehicle treated group (RMANOVA) ([3]; all doses)
COc1ccc(CNc2nc(N(CCO)CCO)nc3c2ncn3C(C)C)cc1 [CVT-313],significant inhibition of neointima formation,–,–,–,–,–,–,–
"C[C@H]1CC[C@H](n2c3cnccc3c3cnc(Nc4ccc5c(n4)CCN(C(=O)CO)C5)nc32)CC1 [Example 5, 2-hydroxy-1-(2-((9-((1r,4r)-4-methylcyclohexyl)-9H-pyrido[4′,3′:4,5]pyrrolo[2,3-d]pyrimidin-2-yl)amino)-7,8-dihydro-1,6-naphthyridin-6(5H)-yl)ethanone]",–,1.5,2.4,19,dose dependent anti-tumor activity; also recorded: Dose-dependent inhibition of tumor growth,statistically different from the vehicle treated group,dose dependent anti-tumor activity; also recorded: Dose-dependent inhibition of tumor growth,statistically different from the vehicle treated group
